Test results as given in US20170209483A1, “ANTIBIOTIC ACTIVITY OF IRON SEQUESTERING POLYMERS” (UNIVERSITY OF KANSAS, priority 2014, published 2017).
Structures can show the parent of a compound that is named as a salt.

Assays:
P. aeruginosa = settings: concentrations used reflect reported MICs; cited from earlier work
[1] = system: Pseudomonas aeruginosa strain PA01 wild type; assay: Comparison to traditional iron chelating agents, bacterial counts; assay type: cell-based; settings: EDTA or HBED 500 μM, PAI-DHBA 20 mg, added at inoculation; 5, 6 and 12 h
[2] = system: Pseudomonas aeruginosa strain PA01 wild type; assay: PAI-DHBA as an adjuvant to conventional antibiotics on bacterial growth; assay type: cell-based; settings: Ciprofloxacin 1 μg/mL added at 5 h, read at 9 h, versus control
[3] = in vivo; cited from earlier work

Gentamicin sulfate
Reported MIC (P. aeruginosa): 24 µg/mL

O=C(O)CN(CCN(CC(=O)O)Cc1ccccc1O)Cc1ccccc1O [HBED, N,N-bis (2-hydroxybenzyl) ethylenediamine-N,N-diacetic acid]
Bacterial count (CFU/mL) versus control (no chelator) [1]: small, transient difference

O=C(O)c1cn(C2CC2)c2cc(N3CCNCC3)c(F)cc2c1=O [Ciprofloxacin, Ciprofloxacin hydrochloride]
Reported MIC (P. aeruginosa): 1 µg/mL
Overall reduction in CFU/mL [2]: approximately 4 log units

CC(=O)N(O)CCCCCNC(=O)CCC(=O)N(O)CCCCCNC(=O)CCC(=O)N(O)CCCCCN [DFO, deferoxamine]
Plasma half-life [3]: ~5.5 min

sodium ethylene diamine tetraacetate [EDTA]
Bacterial count (CFU/mL) versus control (no chelator) [1]: small, transient difference
